Data on six compounds can be found in PubChem BioAssay AID1259407 (Chemical Carcinogenesis Research Information System (CCRIS), 2018).

The source made the active and inactive calls. No rule for the calls is given here.

The data set concerns CCRIS mutagenicity, Ames/micronucleus/aberration tests. The experiment in a line: CCRIS mutagenicity studies.
The mark [1] stands for this setting: Test System: AMES SALMONELLA TYPHIMURIUM, Strain/Indicator: TA98, Metabolic Activation: NONE, Method: STANDARD PLATE.
Where [2] appears, read: Test System: AMES SALMONELLA TYPHIMURIUM, Strain/Indicator: TA98, Metabolic Activation: RAT, LIVER, S-9, AROCLOR 1254, Method: STANDARD PLATE.
Where [3] appears, read: Test System: AMES SALMONELLA TYPHIMURIUM, Strain/Indicator: TA100, Metabolic Activation: NONE, Method: STANDARD PLATE.
The mark [4] stands for this setting: Test System: AMES SALMONELLA TYPHIMURIUM, Strain/Indicator: TA100, Metabolic Activation: RAT, LIVER, S-9, AROCLOR 1254, Method: STANDARD PLATE.
[5] abbreviates: Test System: AMES SALMONELLA TYPHIMURIUM, Strain/Indicator: TA1535, Metabolic Activation: NONE, Method: STANDARD PLATE.
Setting [6] is: Test System: AMES SALMONELLA TYPHIMURIUM, Strain/Indicator: TA1535, Metabolic Activation: RAT, LIVER, S-9, AROCLOR 1254, Method: STANDARD PLATE.
Setting [7] is: Test System: AMES SALMONELLA TYPHIMURIUM, Strain/Indicator: TA1537, Metabolic Activation: NONE, Method: STANDARD PLATE.
[8] abbreviates: Test System: AMES SALMONELLA TYPHIMURIUM, Strain/Indicator: TA1537, Metabolic Activation: RAT, LIVER, S-9, AROCLOR 1254, Method: STANDARD PLATE.
[9] abbreviates: Test System: AMES SALMONELLA TYPHIMURIUM, Strain/Indicator: TA100, Metabolic Activation: NONE, Method: PREINCUBATION
[10] abbreviates: Test System: HUMAN H1A1V2 CELLS, Strain/Indicator: TK LOCUS, Metabolic Activation: NONE, Method: SUSPENSION/PLATE.

As for `CC1(C)[C@@H]2CC[C@@]1(C)C(=O)C2=O`, the mutagenic call runs as follows: (Test System: AMES SALMONELLA TYPHIMURIUM, Strain/Indicator: TA97A, Metabolic Activation: NONE, Method: STANDARD PLATE) “inactive; negative”; (Test System: AMES SALMONELLA TYPHIMURIUM, Strain/Indicator: TA97A, Metabolic Activation: RAT LIVER S-9, AROCLOR 1254, Method: STANDARD PLATE) “inactive; negative”; (Test System: AMES SALMONELLA TYPHIMURIUM, Strain/Indicator: TA98, Metabolic Activation: HAMSTER, LIVER, S-9, AROCLOR 1254, Method: STANDARD PLATE) “inactive; negative”; under setting [1], “inactive; negative”; (Test System: AMES SALMONELLA TYPHIMURIUM, Strain/Indicator: TA98, Metabolic Activation: RAT LIVER S-9, AROCLOR 1254, Method: STANDARD PLATE) “inactive; negative”; under setting [2], “inactive; negative”. Further, the mutagenic call was “inactive; negative” (Test System: AMES SALMONELLA TYPHIMURIUM, Strain/Indicator: TA100, Metabolic Activation: HAMSTER, LIVER, S-9, AROCLOR 1254, Method: STANDARD PLATE); “inactive; negative” under setting [3]; “inactive; negative” (Test System: AMES SALMONELLA TYPHIMURIUM, Strain/Indicator: TA100, Metabolic Activation: RAT LIVER S-9, AROCLOR 1254, Method: STANDARD PLATE); “inactive; negative” under setting [4]; “inactive; negative” (Test System: AMES SALMONELLA TYPHIMURIUM, Strain/Indicator: TA102, Metabolic Activation: NONE, Method: STANDARD PLATE); “inactive; negative” (Test System: AMES SALMONELLA TYPHIMURIUM, Strain/Indicator: TA102, Metabolic Activation: RAT LIVER S-9, AROCLOR 1254, Method: STANDARD PLATE). Besides, the mutagenic call reads like this: (Test System: AMES SALMONELLA TYPHIMURIUM, Strain/Indicator: TA1535, Metabolic Activation: HAMSTER, LIVER, S-9, AROCLOR 1254, Method: STANDARD PLATE) “inactive; negative”; under setting [5], “inactive; negative”; under setting [6], “inactive; negative”; (Test System: AMES SALMONELLA TYPHIMURIUM, Strain/Indicator: TA1537, Metabolic Activation: HAMSTER, LIVER, S-9, AROCLOR 1254, Method: STANDARD PLATE) “inactive; negative”; under setting [7], “inactive; negative”; under setting [8], “inactive; negative”. In addition, the mutagenic call was “inactive; negative” (Test System: AMES SALMONELLA TYPHIMURIUM, Strain/Indicator: TA1538, Metabolic Activation: HAMSTER, LIVER, S-9, AROCLOR 1254, Method: STANDARD PLATE); “inactive; negative” (Test System: AMES SALMONELLA TYPHIMURIUM, Strain/Indicator: TA1538, Metabolic Activation: NONE, Method: STANDARD PLATE); “inactive; negative” (Test System: AMES SALMONELLA TYPHIMURIUM, Strain/Indicator: TA1538, Metabolic Activation: RAT, LIVER, S-9, AROCLOR 1254, Method: STANDARD PLATE); “active; positive” (Test System: Mouse lymphoma, Strain/Indicator: L5178Y (tk+/tk-), Metabolic Activation: None, Method: Suspension/plate); “inactive; negative” (Test System: Mouse lymphoma, Strain/Indicator: L5178Y (tk+/tk-), Metabolic Activation: Rat, Liver, S-9, Aroclor 1254, Method: Suspension/plate).

Take `O=C1C=CC(=O)C(Cl)=C1`: the mutagenic call is, setting by setting: (Test System: AMES SALMONELLA TYPHIMURIUM, Strain/Indicator: TA98, Metabolic Activation: NONE, Method: PREINCUBATION) “inactive; negative”; (Test System: AMES SALMONELLA TYPHIMURIUM, Strain/Indicator: TA98, Metabolic Activation: RAT, LIVER, S-9, PHENOBARBITAL AND 5,6-BENZOFLAVONE, Method: PREINCUBATION) “inactive; negative”; under setting [9], “inactive; negative”; (Test System: AMES SALMONELLA TYPHIMURIUM, Strain/Indicator: TA100, Metabolic Activation: RAT, LIVER, S-9, PHENOBARBITAL AND 5,6-BENZOFLAVONE, Method: PREINCUBATION) “inactive; negative”; (Test System: AMES SALMONELLA TYPHIMURIUM, Strain/Indicator: TA102, Metabolic Activation: NONE, Method: PREINCUBATION) “inactive; negative”; (Test System: AMES SALMONELLA TYPHIMURIUM, Strain/Indicator: TA102, Metabolic Activation: RAT, LIVER, S-9, PHENOBARBITAL AND 5,6-BENZOFLAVONE, Method: PREINCUBATION) “inactive; negative”. The mutagenic call is, setting by setting: (Test System: AMES SALMONELLA TYPHIMURIUM, Strain/Indicator: TA104, Metabolic Activation: NONE, Method: PREINCUBATION) “inactive; negative”; (Test System: AMES SALMONELLA TYPHIMURIUM, Strain/Indicator: TA104, Metabolic Activation: RAT, LIVER, S-9, PHENOBARBITAL AND 5,6-BENZOFLAVONE, Method: PREINCUBATION) “inactive; negative”; (Test System: AMES SALMONELLA TYPHIMURIUM, Strain/Indicator: TA2637, Metabolic Activation: NONE, Method: PREINCUBATION) “inactive; negative”; (Test System: AMES SALMONELLA TYPHIMURIUM, Strain/Indicator: TA2637, Metabolic Activation: RAT, LIVER, S-9, PHENOBARBITAL AND 5,6-BENZOFLAVONE, Method: PREINCUBATION) “inactive; negative”.

Turning to `CC(=O)N[C@@H](CSC(Cl)=C(Cl)Cl)C(=O)O`, the mutagenic call is “active; positive” under setting [9] and “active; positive” (Test System: AMES SALMONELLA TYPHIMURIUM, Strain/Indicator: TA100, Metabolic Activation: RAT, KIDNEY, CYTOSOL, Method: PREINCUBATION).

Regarding `c1ccc2c(c1)cc1ccc3c4ccccc4cc4ccc2c1c43`, under setting [10], the mutagenic call is “active; positive”.

Regarding `c1ccc2c(c1)c1cccc3c4ccccc4c4cccc2c4c13`, the mutagenic call under setting [10] is “active; positive”.

As for `CCC(=O)n1ncc(Cl)c(Cl)c1=O`, the mutagenic call was “inactive; negative” under setting [1]; “inactive; negative” under setting [2]; “inactive; negative” under setting [3]; “inactive; negative” under setting [4]; “inactive; negative” under setting [5]; “inactive; negative” under setting [6]. In addition, the mutagenic call was “inactive; negative” under setting [7] and “inactive; negative” under setting [8].
